# Experimental data: patent US20050256302A1, “Novel peptides having camp producing activity” (Japan Science and Technology Agency, priority 2002, published 2005)
# Where a SMILES comes first, the peptide text is derived from it. Bridges are numbered along the chain shown (N, C = ends).
# Molecular target: T1, Pig calcitonin receptor (CTR) (Sus scrofa, UniProt P25117)
# T1 construct: expressed in transfected cells; host or cells: COS-7 (given as rhesus monkey renal cells), vector pcDNA 3.1
# T1 sequence (P25117 30-498): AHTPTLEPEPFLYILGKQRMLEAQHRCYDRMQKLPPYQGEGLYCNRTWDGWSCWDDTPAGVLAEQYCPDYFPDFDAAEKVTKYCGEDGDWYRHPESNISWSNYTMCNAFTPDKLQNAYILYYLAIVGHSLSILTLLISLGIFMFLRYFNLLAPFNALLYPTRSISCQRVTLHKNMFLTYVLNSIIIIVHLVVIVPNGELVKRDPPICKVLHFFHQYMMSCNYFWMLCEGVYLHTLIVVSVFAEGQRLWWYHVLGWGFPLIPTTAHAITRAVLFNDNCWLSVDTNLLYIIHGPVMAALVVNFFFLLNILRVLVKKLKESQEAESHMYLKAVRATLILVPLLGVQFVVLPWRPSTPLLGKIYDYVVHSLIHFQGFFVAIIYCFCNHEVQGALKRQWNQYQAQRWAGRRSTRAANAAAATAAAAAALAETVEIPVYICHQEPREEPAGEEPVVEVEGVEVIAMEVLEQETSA
# Assay: cAMP production in COS-7 cells expressing pig calcitonin receptor
# Format: cell-based
# Protocol: Pig calcitonin receptor (CTR) was introduced into a mammalian expression vector pcDNA 3.1, expressed in rhesus monkey renal cells (COS-7) and production amount of cAMP by stimulation of CRSP was measured by radioimmunoassay. Similarly, CTR was expressed in opossum renal cells (OK cells) and production amount of cAMP by stimulation of CRSP was measured by radioimmunoassay while incorporation of sodium ion was measured by measuring the incorporation of sodium chloride having radioactivity (^22Na) by a gamma-counter.
# Pig calcitonin receptor (CTR) was introduced into mammalian expression vector pcDNA 3.1 and then expressed in rhesus monkey renal cells (COS-7) whereupon production amount of cAMP by CRSP stimulation was measured by radioimmunoassay.
# Pig calcitonin receptor (CTR) was introduced into a mammalian expression vector pcDNA 3.1 and expressed in rhesus monkey renal cells (COS-7) and production amount of cAMP by CRSP stimulation was measured by radioimmunoassay.
# Pig calcitonin receptor (CTR) was introduced into a mammalian expression vector pcDNA 3.1, then expressed in rhesus monkey renal cells (COS-7) and production amount of cAMP by CRSP or CRSP-Gly stimulation was measured-by radioimmunoassay.
compound,measurement,setting,value
CSCC[C@H](NC(=O)[C@H](CCCCN)NC(=O)[C@@H](NC(=O)[C@@H]1CCCN1C(=O)[C@H](CC(C)C)NC(=O)[C@H](CC(C)C)NC(=O)[C@H](CC(N)=O)NC(=O)[C@H](CO)NC(=O)[C@H](CCCNC(=N)N)NC(=O)[C@@H](NC(=O)[C@H](CCSC)NC(=O)[C@H](CO)NC(=O)CNC(=O)[C@H](CO)NC(=O)[C@H](CCCNC(=N)N)NC(=O)[C@H](CO)NC(=O)[C@H](CC(C)C)NC(=O)[C@H](CC(C)C)NC(=O)CNC(=O)[C@@H](NC(=O)[C@H](CC(C)C)NC(=O)[C@H](CCCNC(=N)N)NC(=O)[C@H](Cc1c[nH]cn1)NC(=O)[C@@H](NC(=O)[C@H](CCSC)NC(=O)[C@@H]1CSSC[C@H](NC(=O)[C@@H](N)CO)C(=O)N[C@@H](CC(N)=O)C(=O)N[C@@H]([C@@H](C)O)C(=O)N[C@@H](C)C(=O)N[C@@H]([C@@H](C)O)C(=O)N1)[C@@H](C)O)C(C)C)C(C)C)[C@@H](C)O)C(=O)NCC(=O)N[C@@H](Cc1ccccc1)C(=O)N[C@@H](CCCCN)C(=O)N[C@H](C(=O)N[C@@H](Cc1ccccc1)C(=O)NCC(N)=O)C(C)C [CRSP] (H-SCNTATCMTHRLVGLLSRSGSMVRSNLLPTKMGFKVFG-NH2; disulfide 2-7),"cAMP productivity, CRSP compared with CRSP-Gly",CTR expressed in COS-7,nearly the same cAMP productivity
same,activity stronger than pig calcitonin,"CTR expressed in COS-7, ratio of ED50",about 350 fold
same,EC50,"CTR expressed in COS-7, read-out: ED50, increase of intracellular adenylyl cyclase activity (cAMP production)",~0.2 nM
